Reference: PubChem BioAssay AID274 (DTP/NCI, 2004)
Inconclusive results and toxic doses are left out. How the source made its calls: active means survival T/C of 150% or more; inactive means T/C below 125% in these data.

Test system: BDF1 mice, Lewis lung carcinoma iv, survival T/C
Assay: NCI In Vivo Anticancer Drug Screen. Data for tumor model Lewis Lung Carcinoma (intravenous) in B6D2F1 (BDF1) mice
Conditions: endpoint: median survival time, schedule: Q01DX009 (ip), higher = longer survival
Experimental: The antitumor activity of compounds was measured in mice bearing transplantable tumors. Survival or tumor size were measured and the results are expressed as the measurement made in the treated group (T) divided by the measurement made in the vehicle treated control group (C). The tumor model used in this assay is Lewis Lung Carcinoma (intravenous) in B6D2F1 (BDF1) mice

[1] = dose: 12.5 mg/kg/injection, vehicle: Klucel (hydroxypropylcellulose) (HPC)
[2] = dose: 25.0 mg/kg/injection, vehicle: Klucel (hydroxypropylcellulose) (HPC)
[3] = dose: 50.0 mg/kg/injection, vehicle: Klucel (hydroxypropylcellulose) (HPC)
[4] = dose: 100.0 mg/kg/injection, vehicle: Klucel (hydroxypropylcellulose) (HPC)
[5] = dose: 400.0 mg/kg/injection, vehicle: Klucel (hydroxypropylcellulose) (HPC)
[6] = dose: 12.5 mg/kg/injection, vehicle: saline
[7] = dose: 25.0 mg/kg/injection, vehicle: saline

Measured: T/C

CCCNC1=C(C)C(=O)C2=C(C1=O)[C@H](COC(N)=O)[C@]1(OC)[C@@H]3N[C@@H]3CN21
inactive: dose: 0.39 mg/kg/injection, vehicle: saline 104 % of control | dose: 0.78 mg/kg/injection, vehicle: saline 100 % of control | dose: 1.56 mg/kg/injection, vehicle: saline 102 % of control | dose: 3.12 mg/kg/injection, vehicle: saline 108 % of control

COc1ccc2ccccc2c1C1NC(=O)c2ccccc2N1 (stereo not given)
inactive: [1] 90 % of control | [2] 92 % of control | [3] 92 % of control | [4] 96 % of control | dose: 200.0 mg/kg/injection, vehicle: Klucel (hydroxypropylcellulose) (HPC) 98 % of control | [5] 102 % of control

O=c1oc2c(O)c(O)cc3c(=O)oc4c(O)c(O)cc1c4c23
inactive: [1] 102 % of control | [2] 112 % of control | [3] 116 % of control | [4] 111 % of control | [5] 121 % of control

C[C@]12CC[C@H]3[C@@H](CC[C@]4(O)C[C@@H](O)CC[C@]34C=O)[C@@]1(O)CC[C@@H]2C1=CC(=O)OC1
inactive: [6] 96 % of control | [7] 108 % of control | dose: 50.0 mg/kg/injection, vehicle: saline 108 % of control | dose: 100.0 mg/kg/injection, vehicle: saline 100 % of control

CNc1nc(N(C)C)nc(N(C)C)n1
inactive: [6] 96 % of control | [7] 98 % of control

CC(C)NCC(O)COc1cccc2ccccc12 (stereo not given)
inactive: dose: 8.0 mg/kg/injection, vehicle: Klucel (hydroxypropylcellulose) (HPC) 90 % of control | dose: 16.0 mg/kg/injection, vehicle: Klucel (hydroxypropylcellulose) (HPC) 96 % of control | dose: 32.0 mg/kg/injection, vehicle: Klucel (hydroxypropylcellulose) (HPC) 92 % of control | dose: 64.0 mg/kg/injection, vehicle: Klucel (hydroxypropylcellulose) (HPC) 100 % of control
